Here are results for eight molecules from ChEMBL document CHEMBL3046626, “Antifungal chalcones and new caffeic acid esters from Zuccagnia punctata acting against soybean infecting fungi” (2004).

SMILES strings stand for the structures. Converted amounts (≈) assume the structure as drawn. Bounds are passed on as bounds.

In one experiment the test system is Fusarium graminearum. Description: microbe, parasite or virus in culture. The class given is functional. To be noted: isolate CE170.
`CC(CCc1ccc(O)cc1)OC(=O)/C=C/c1ccc(O)c(O)c1` (stereo unspecified) registered an MIC above 50 µg/mL.

As to `CC(CCc1ccc(O)c(O)c1)OC(=O)/C=C/c1ccc(O)c(O)c1` (stereo unspecified), the MIC is above 50 µg/mL.

In turn, `O=C(/C=C/c1ccccc1)c1ccc(O)cc1O` [2',4'-DIHYDROXYCHALCONE] registered an MIC of 25 µg/mL (≈ 104 µM).

`CO/C=C(/C(=O)OC)c1ccccc1Oc1cc(Oc2ccccc2C#N)ncn1` [AZOXYSTROBIN] registered an MIC of 0.25 µg/mL (≈ 0.62 µM).

Molecule `COC(=O)Nc1nc2ccccc2[nH]1` [CARBENDAZIM] yielded an MIC of 0.75 µg/mL (≈ 3.92 µM).

As for `CC(=O)N1CCN(c2ccc(OCC3COC(Cn4ccnc4)(c4ccc(Cl)cc4Cl)O3)cc2)CC1` (stereo unspecified) [KETOCONAZOLE], the MIC is 40 µg/mL (≈ 75.3 µM).

The molecule `COc1c(O)ccc(C(=O)/C=C/c2ccccc2)c1O` [LARREIN] yielded an MIC of 25 µg/mL (≈ 92.5 µM).

Regarding `COC(=O)N(OC)c1ccccc1COc1ccn(-c2ccc(Cl)cc2)n1` [PYRACLOSTROBIN], the MIC was found to be 0.05 µg/mL (≈ 0.129 µM).

A further experiment deals with Colletotrichum truncatum. The experiment is described as follows: Antifungal activity against Colletotrichum truncatum CE175 after 48 to 72 hr. The class given is functional.
Conditions: not given
Turning to `CC(CCc1ccc(O)cc1)OC(=O)/C=C/c1ccc(O)c(O)c1` (stereo unspecified), the MIC was above 50 µg/mL.

As to `CC(CCc1ccc(O)c(O)c1)OC(=O)/C=C/c1ccc(O)c(O)c1` (stereo unspecified), the MIC is above 50 µg/mL.

In turn, `O=C(/C=C/c1ccccc1)c1ccc(O)cc1O` [2',4'-DIHYDROXYCHALCONE] yielded an MIC of 6.25 µg/mL (≈ 26 µM).

Take `CO/C=C(/C(=O)OC)c1ccccc1Oc1cc(Oc2ccccc2C#N)ncn1` [AZOXYSTROBIN]: the MIC worked out at 0.05 µg/mL (≈ 0.124 µM).

Regarding `COC(=O)Nc1nc2ccccc2[nH]1` [CARBENDAZIM], the MIC amounted to 0.01 µg/mL (≈ 0.0523 µM).

`CC(=O)N1CCN(c2ccc(OCC3COC(Cn4ccnc4)(c4ccc(Cl)cc4Cl)O3)cc2)CC1` (stereo unspecified) [KETOCONAZOLE] gave an MIC of 1.5 µg/mL (≈ 2.82 µM).

`COc1c(O)ccc(C(=O)/C=C/c2ccccc2)c1O` [LARREIN] returned an MIC of 6.25 µg/mL (≈ 23.1 µM).

`COC(=O)N(OC)c1ccccc1COc1ccn(-c2ccc(Cl)cc2)n1` [PYRACLOSTROBIN]: the MIC turned out to be 0.04 µg/mL (≈ 0.103 µM).

The subject of a further experiment is Diaporthe longicolla. Description: Antifungal activity against Diaporthe longicolla CE117 after 48 to 72 hr. In kind it is functional.
Conditions: not given
For the molecule `CC(CCc1ccc(O)cc1)OC(=O)/C=C/c1ccc(O)c(O)c1` (stereo unspecified), the MIC was determined as 6.25 µg/mL (≈ 19 µM).

Molecule `CC(CCc1ccc(O)c(O)c1)OC(=O)/C=C/c1ccc(O)c(O)c1` (stereo unspecified) returned an MIC above 50 µg/mL.

In turn, `O=C(/C=C/c1ccccc1)c1ccc(O)cc1O` [2',4'-DIHYDROXYCHALCONE] gave an MIC of 3.12 µg/mL (≈ 13 µM).

The molecule `CO/C=C(/C(=O)OC)c1ccccc1Oc1cc(Oc2ccccc2C#N)ncn1` [AZOXYSTROBIN] registered an MIC of 0.05 µg/mL (≈ 0.124 µM).

For `COC(=O)Nc1nc2ccccc2[nH]1` [CARBENDAZIM], the MIC was 0.01 µg/mL (≈ 0.0523 µM).

Take `CC(=O)N1CCN(c2ccc(OCC3COC(Cn4ccnc4)(c4ccc(Cl)cc4Cl)O3)cc2)CC1` (stereo unspecified) [KETOCONAZOLE]: the MIC is 0.5 µg/mL (≈ 0.941 µM).

Regarding `COc1c(O)ccc(C(=O)/C=C/c2ccccc2)c1O` [LARREIN], the MIC worked out at 6.25 µg/mL (≈ 23.1 µM).

On to `COC(=O)N(OC)c1ccccc1COc1ccn(-c2ccc(Cl)cc2)n1` [PYRACLOSTROBIN], for which the MIC is 0.01 µg/mL (≈ 0.0258 µM).

A further experiment relates to Alternaria alternata. The experiment is described as follows: Antifungal activity against Alternaria alternata (CE172) after 48 to 72 hr. The class given is functional.
Conditions: not given
The molecule `CC(CCc1ccc(O)cc1)OC(=O)/C=C/c1ccc(O)c(O)c1` (stereo unspecified) showed an MIC above 50 µg/mL.

As to `CC(CCc1ccc(O)c(O)c1)OC(=O)/C=C/c1ccc(O)c(O)c1` (stereo unspecified), the MIC was above 50 µg/mL.

As for `O=C(/C=C/c1ccccc1)c1ccc(O)cc1O` [2',4'-DIHYDROXYCHALCONE], the MIC amounted to 25 µg/mL (≈ 104 µM).

`CO/C=C(/C(=O)OC)c1ccccc1Oc1cc(Oc2ccccc2C#N)ncn1` [AZOXYSTROBIN] displayed an MIC of 2.5 µg/mL (≈ 6.2 µM).

`COC(=O)Nc1nc2ccccc2[nH]1` [CARBENDAZIM] registered an MIC of 75 µg/mL (≈ 392 µM).

In turn, `CC(=O)N1CCN(c2ccc(OCC3COC(Cn4ccnc4)(c4ccc(Cl)cc4Cl)O3)cc2)CC1` (stereo unspecified) [KETOCONAZOLE] gave an MIC of 5 µg/mL (≈ 9.41 µM).

The molecule `COc1c(O)ccc(C(=O)/C=C/c2ccccc2)c1O` [LARREIN] gave an MIC of 25 µg/mL (≈ 92.5 µM).

`COC(=O)N(OC)c1ccccc1COc1ccn(-c2ccc(Cl)cc2)n1` [PYRACLOSTROBIN] yielded an MIC of 0.4 µg/mL (≈ 1.03 µM).

In another experiment the test system is Fusarium graminearum. The experiment is described as follows: microbe, parasite or virus in culture. The class given is functional. To be noted: isolate CE135.
Molecule `CC(CCc1ccc(O)cc1)OC(=O)/C=C/c1ccc(O)c(O)c1` (stereo unspecified) returned an MIC above 50 µg/mL.

With `CC(CCc1ccc(O)c(O)c1)OC(=O)/C=C/c1ccc(O)c(O)c1` (stereo unspecified), the MIC is above 50 µg/mL.

Consider `O=C(/C=C/c1ccccc1)c1ccc(O)cc1O` [2',4'-DIHYDROXYCHALCONE], for which the MIC is 25 µg/mL (≈ 104 µM).

Molecule `CO/C=C(/C(=O)OC)c1ccccc1Oc1cc(Oc2ccccc2C#N)ncn1` [AZOXYSTROBIN] showed an MIC of 5 µg/mL (≈ 12.4 µM).

In the case of `COC(=O)Nc1nc2ccccc2[nH]1` [CARBENDAZIM], the MIC is 0.75 µg/mL (≈ 3.92 µM).

`CC(=O)N1CCN(c2ccc(OCC3COC(Cn4ccnc4)(c4ccc(Cl)cc4Cl)O3)cc2)CC1` (stereo unspecified) [KETOCONAZOLE] returned an MIC of 40 µg/mL (≈ 75.3 µM).

As for `COc1c(O)ccc(C(=O)/C=C/c2ccccc2)c1O` [LARREIN], the MIC amounted to 12.5 µg/mL (≈ 46.2 µM).

In the case of `COC(=O)N(OC)c1ccccc1COc1ccn(-c2ccc(Cl)cc2)n1` [PYRACLOSTROBIN], the MIC came out at 1 µg/mL (≈ 2.58 µM).

The subject of the next experiment is Fusarium equiseti. Description: Antifungal activity against Fusarium equiseti (CE181) after 48 to 72 hr. The class given is functional.
Conditions: not given
Regarding `CC(CCc1ccc(O)cc1)OC(=O)/C=C/c1ccc(O)c(O)c1` (stereo unspecified), the MIC was above 50 µg/mL.

In turn, `CC(CCc1ccc(O)c(O)c1)OC(=O)/C=C/c1ccc(O)c(O)c1` (stereo unspecified) yielded an MIC above 50 µg/mL.

`O=C(/C=C/c1ccccc1)c1ccc(O)cc1O` [2',4'-DIHYDROXYCHALCONE]: the MIC was found to be 25 µg/mL (≈ 104 µM).

For `CO/C=C(/C(=O)OC)c1ccccc1Oc1cc(Oc2ccccc2C#N)ncn1` [AZOXYSTROBIN], the MIC was 12.5 µg/mL (≈ 31 µM).

Take `COC(=O)Nc1nc2ccccc2[nH]1` [CARBENDAZIM]: the MIC worked out at 0.75 µg/mL (≈ 3.92 µM).

`CC(=O)N1CCN(c2ccc(OCC3COC(Cn4ccnc4)(c4ccc(Cl)cc4Cl)O3)cc2)CC1` (stereo unspecified) [KETOCONAZOLE]: the MIC was found to be 50 µg/mL (≈ 94.1 µM).

Turning to `COc1c(O)ccc(C(=O)/C=C/c2ccccc2)c1O` [LARREIN], the MIC was determined as 25 µg/mL (≈ 92.5 µM).

Molecule `COC(=O)N(OC)c1ccccc1COc1ccn(-c2ccc(Cl)cc2)n1` [PYRACLOSTROBIN] showed an MIC of 12.5 µg/mL (≈ 32.2 µM).

The test system of another experiment is Fusarium graminearum. Description: microbe, parasite or virus in culture. The class given is functional. To be noted: isolate CE171.
Consider `CC(CCc1ccc(O)cc1)OC(=O)/C=C/c1ccc(O)c(O)c1` (stereo unspecified), for which the MIC was above 50 µg/mL.

As for `CC(CCc1ccc(O)c(O)c1)OC(=O)/C=C/c1ccc(O)c(O)c1` (stereo unspecified), the MIC was above 50 µg/mL.

`O=C(/C=C/c1ccccc1)c1ccc(O)cc1O` [2',4'-DIHYDROXYCHALCONE] returned an MIC of 25 µg/mL (≈ 104 µM).

Take `CO/C=C(/C(=O)OC)c1ccccc1Oc1cc(Oc2ccccc2C#N)ncn1` [AZOXYSTROBIN]: the MIC was 0.4 µg/mL (≈ 0.992 µM).

The molecule `COC(=O)Nc1nc2ccccc2[nH]1` [CARBENDAZIM] registered an MIC of 0.4 µg/mL (≈ 2.09 µM).

On to `CC(=O)N1CCN(c2ccc(OCC3COC(Cn4ccnc4)(c4ccc(Cl)cc4Cl)O3)cc2)CC1` (stereo unspecified) [KETOCONAZOLE], for which the MIC amounted to 40 µg/mL (≈ 75.3 µM).

Molecule `COc1c(O)ccc(C(=O)/C=C/c2ccccc2)c1O` [LARREIN] gave an MIC of 12.5 µg/mL (≈ 46.2 µM).

The molecule `COC(=O)N(OC)c1ccccc1COc1ccn(-c2ccc(Cl)cc2)n1` [PYRACLOSTROBIN] came in with an MIC of 0.05 µg/mL (≈ 0.129 µM).

The next experiment concerns Fusarium graminearum. Description: microbe, parasite or virus in culture. The class given is functional. To be noted: isolate CE169.
In the case of `CC(CCc1ccc(O)cc1)OC(=O)/C=C/c1ccc(O)c(O)c1` (stereo unspecified), the MIC was above 50 µg/mL.

Consider `CC(CCc1ccc(O)c(O)c1)OC(=O)/C=C/c1ccc(O)c(O)c1` (stereo unspecified), for which the MIC is above 50 µg/mL.

In turn, `O=C(/C=C/c1ccccc1)c1ccc(O)cc1O` [2',4'-DIHYDROXYCHALCONE] returned an MIC of 25 µg/mL (≈ 104 µM).

Take `CO/C=C(/C(=O)OC)c1ccccc1Oc1cc(Oc2ccccc2C#N)ncn1` [AZOXYSTROBIN]: the MIC worked out at 7.5 µg/mL (≈ 18.6 µM).

The molecule `CC(=O)N1CCN(c2ccc(OCC3COC(Cn4ccnc4)(c4ccc(Cl)cc4Cl)O3)cc2)CC1` (stereo unspecified) [KETOCONAZOLE] yielded an MIC of 40 µg/mL (≈ 75.3 µM).

As for `COc1c(O)ccc(C(=O)/C=C/c2ccccc2)c1O` [LARREIN], the MIC worked out at 12.5 µg/mL (≈ 46.2 µM).

`COC(=O)N(OC)c1ccccc1COc1ccn(-c2ccc(Cl)cc2)n1` [PYRACLOSTROBIN] came in with an MIC of 20 µg/mL (≈ 51.6 µM).

In another experiment the test system is Macrophomina phaseolina. Description: Antifungal activity against Macrophomina phaseolina isolate CE173 after 48 to 72 hr.
Conditions: not given
The class given is functional.
Turning to `CC(CCc1ccc(O)cc1)OC(=O)/C=C/c1ccc(O)c(O)c1` (stereo unspecified), the MIC was above 50 µg/mL.

For `CC(CCc1ccc(O)c(O)c1)OC(=O)/C=C/c1ccc(O)c(O)c1` (stereo unspecified), the MIC was above 50 µg/mL.

With `O=C(/C=C/c1ccccc1)c1ccc(O)cc1O` [2',4'-DIHYDROXYCHALCONE], the MIC is 50 µg/mL (≈ 208 µM).

Turning to `CO/C=C(/C(=O)OC)c1ccccc1Oc1cc(Oc2ccccc2C#N)ncn1` [AZOXYSTROBIN], the MIC came to 2.5 µg/mL (≈ 6.2 µM).

`COC(=O)Nc1nc2ccccc2[nH]1` [CARBENDAZIM] returned an MIC of 0.25 µg/mL (≈ 1.31 µM).

Molecule `CC(=O)N1CCN(c2ccc(OCC3COC(Cn4ccnc4)(c4ccc(Cl)cc4Cl)O3)cc2)CC1` (stereo unspecified) [KETOCONAZOLE] displayed an MIC of 50 µg/mL (≈ 94.1 µM).

Turning to `COc1c(O)ccc(C(=O)/C=C/c2ccccc2)c1O` [LARREIN], the MIC was 50 µg/mL (≈ 185 µM).

Take `COC(=O)N(OC)c1ccccc1COc1ccn(-c2ccc(Cl)cc2)n1` [PYRACLOSTROBIN]: the MIC came out at 2.5 µg/mL (≈ 6.45 µM).
